This note sets out measurements from article PMC4625925, “One amino acid makes the difference: the formation of ent-kaurene and 16α-hydroxy-ent-kaurane by diterpene synthases in poplar” (BMC Plant Biology, 2015).

For one assay, the target named is T1, PtTPS19 (Populus trichocarpa, UniProt A0A0S1TJ32).
T1 construct: N-terminally truncated (delta 42 aa, transit peptide removed), pET200 (N-terminal His tag), E. coli BL21(DE3), partially purified
The assay is described as follows: GC-MS product analysis, ent-CPP made in situ. In kind it is biochemical. Particulars: ent-CPP from GGPP by coupled PtTPS17; 5 mM MgCl2, pH 7.5, 25 °C, 2 h.

For another assay, the target named is T2, PtTPS17 (Populus trichocarpa, UniProt A0A0S1TFB5).
T2 construct: N-terminally truncated (delta 65 aa, transit peptide removed), pET200 (N-terminal His tag), E. coli BL21(DE3), partially purified
T2 sequence (A0A0S1TFB5 66-795): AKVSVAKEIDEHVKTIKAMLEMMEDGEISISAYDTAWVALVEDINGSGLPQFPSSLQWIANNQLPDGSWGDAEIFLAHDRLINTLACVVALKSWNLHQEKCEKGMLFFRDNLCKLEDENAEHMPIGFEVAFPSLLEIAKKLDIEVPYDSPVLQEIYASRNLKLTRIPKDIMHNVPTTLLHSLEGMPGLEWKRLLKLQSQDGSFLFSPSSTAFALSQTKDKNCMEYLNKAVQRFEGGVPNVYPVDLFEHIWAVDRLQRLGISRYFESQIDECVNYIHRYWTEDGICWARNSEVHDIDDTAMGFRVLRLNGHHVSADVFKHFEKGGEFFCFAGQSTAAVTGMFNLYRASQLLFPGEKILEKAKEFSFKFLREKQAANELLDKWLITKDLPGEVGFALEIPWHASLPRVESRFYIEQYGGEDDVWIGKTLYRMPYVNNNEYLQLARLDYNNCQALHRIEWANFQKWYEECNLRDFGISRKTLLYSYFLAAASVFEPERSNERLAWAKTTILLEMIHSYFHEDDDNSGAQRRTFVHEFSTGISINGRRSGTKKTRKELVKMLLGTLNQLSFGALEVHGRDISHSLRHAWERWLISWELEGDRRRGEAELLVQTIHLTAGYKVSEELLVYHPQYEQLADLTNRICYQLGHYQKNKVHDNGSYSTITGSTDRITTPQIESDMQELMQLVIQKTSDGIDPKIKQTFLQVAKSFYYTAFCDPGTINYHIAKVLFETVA
The assay is described as follows: GC-MS product analysis. In kind it is biochemical. Particulars: 50 µM GGPP, 5 mM MgCl2, pH 7.5, 25 °C, 2 h; product ent-CPP detected as copalol.

T1 sequence (A0A0S1TJ32 entry or part of it): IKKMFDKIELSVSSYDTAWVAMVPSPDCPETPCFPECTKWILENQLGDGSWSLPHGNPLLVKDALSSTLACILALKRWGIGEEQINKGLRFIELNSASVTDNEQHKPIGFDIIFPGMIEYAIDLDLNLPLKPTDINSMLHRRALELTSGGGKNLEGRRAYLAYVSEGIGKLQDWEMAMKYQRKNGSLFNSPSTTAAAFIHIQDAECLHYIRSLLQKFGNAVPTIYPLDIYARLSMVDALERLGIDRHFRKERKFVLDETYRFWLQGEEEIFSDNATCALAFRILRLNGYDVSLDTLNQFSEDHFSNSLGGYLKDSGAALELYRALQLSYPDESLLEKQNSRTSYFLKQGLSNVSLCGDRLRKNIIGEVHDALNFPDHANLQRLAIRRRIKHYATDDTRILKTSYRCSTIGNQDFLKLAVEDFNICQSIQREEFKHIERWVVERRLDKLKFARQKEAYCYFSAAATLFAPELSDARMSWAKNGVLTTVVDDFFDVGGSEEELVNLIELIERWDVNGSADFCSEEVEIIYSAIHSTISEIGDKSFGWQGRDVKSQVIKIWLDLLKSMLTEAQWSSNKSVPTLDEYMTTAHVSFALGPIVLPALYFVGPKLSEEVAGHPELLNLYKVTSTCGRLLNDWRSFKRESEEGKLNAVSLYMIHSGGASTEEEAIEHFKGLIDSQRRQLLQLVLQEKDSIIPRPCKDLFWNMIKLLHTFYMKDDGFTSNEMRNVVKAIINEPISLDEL

For `C=C1CC[C@@H]2C(C)(C)CCC[C@@]2(C)[C@@H]1CC/C(C)=C/COP(=O)(O)OP(=O)(O)O` [ent-CPP], the “GC-MS product analysis, ent-CPP made in situ” value at PtTPS19 is recorded as “PtTPS19 converted ent-CPP into ent-kaurene”.
`CC(C)=CCC/C(C)=C/CC/C(C)=C/CC/C(C)=C/COP(=O)(O)OP(=O)(O)O` [(E,E,E)-GGPP]: at PtTPS17, the GC-MS product analysis entry is recorded as “When PtTPS17 was incubated with GGPP, copalol was detected”.
